According to publication PMC10204090, “TFBMiner: A User-Friendly Command Line Tool for the Rapid Mining of Transcription Factor-Based Biosensors” (ACS Synthetic Biology, 2023):

Biological target: T1, P. hospita MdlR (C2L64_43720) (Paraburkholderia hospita, UniProt A0AAN1MPU5)
T1 construct: gene WQE_50835; full-length LysR-type regulator, gene codon-optimised for E. coli, expressed from Ptrc in E. coli NEB 5-alpha; rfp reporter under P. hospita PmdlC (PC2L64_43715)
T1 sequence (A0AAN1MPU5 1-297): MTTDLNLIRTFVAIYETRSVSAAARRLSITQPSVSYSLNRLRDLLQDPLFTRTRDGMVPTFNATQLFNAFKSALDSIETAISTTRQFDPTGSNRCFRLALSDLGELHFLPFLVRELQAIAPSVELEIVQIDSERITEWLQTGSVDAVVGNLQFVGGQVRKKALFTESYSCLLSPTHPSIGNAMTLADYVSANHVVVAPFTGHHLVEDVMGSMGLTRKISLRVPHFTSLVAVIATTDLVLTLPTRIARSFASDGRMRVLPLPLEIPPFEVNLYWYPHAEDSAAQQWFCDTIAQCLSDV
Test: E. coli whole-cell RFP reporter assay, Hill fit
Assay type: cell-based
Settings: read-out: Km ^a
Source text: E. coli whole-cell RFP reporter assay, Hill fit on P. hospita MdlR (C2L64_43720)

| EC50 | Structure (SMILES) |
| --- | --- |
| 167 µM | O=C(O)[C@@H](O)c1ccccc1 [compound 1, S-mandelate] |
| 93 µM | O=C(O)C(=O)c1ccccc1 [compound 4, phenylglyoxylate] |
